From publication PMC8924238, “Mapping the sequence specificity of heterotypic amyloid interactions enables the identification of aggregation modifiers” (Nature Communications, 2022)

Tested on: HEK293 Tau^RD-P301S-CFP/YFP expressing biosensor cells
Assay: FRET cellular transfection assay with protein constructs and tau seeds
Format: cell-based
Details: for rise of induced tau aggregation in transfection-positive cells: compared to non-expressing and non-transfected cells, high seeding concentrations; for susceptibility to tau seeding at low seed concentrations: concentration-dependent quantification; for number of inclusions formed per cell: higher concentrations of tau seeds, compared to the controls
Protocol: HEK293 Tau^RD-P301S-CFP/YFP expressing biosensor cells[109] were purchased from ATCC and cultured in DMEM medium, supplemented with 10% FBS at 37 °C, and a 5% CO2 atmosphere. Gene constructs (Supplementary Methods) were generated and onboarded to a pTwist CMV expression vector by coupling double-tagged (N-terminal HA and C-terminal FLAG recognition sites) genes of interest to an mKO2 fluorescence reporter, separated by an IRES site to enable independent co-expression (Twist Biosciences). Due to restrictions imposed by the construct synthesis, for proteins longer than 500 residues we designed shorter domain-constructs containing the homologous sequences (Supplementary Table 2). Biosensor cells were plated in poly-L-lysine coated 96-well plates (PerkinElmer) at a density of 20000 cells/well. DNA transfection (100 ng) and tau seeds transfection was performed 6 h and 48 h later, respectively, using Lipofectamine 3000 according to the manufacturer guidelines. For seed transfections specifically, a volume of 4.8 μL of the seed sample, mixed with 0.2 μL of Reagent 3000, was added to a mixture of 0.3 μL of Lipofectamine 3000 with 4.7 μL of Opti-MEM medium. Cells were fixed with 4% formaldehyde 24 h after seeding. Fixed cells were stained with DAPI (Thermofisher, D1306) following the manufacturer protocol. For immunofluorescence staining, primary antibody staining at 1:1000 dilution was performed in 1% BSA with an HA-tag (C29F4) Rabbit mAb (Cell Signalling, #3724), followed by secondary staining with an Alexa Fluor 647 goat anti-rabbit antibody (ThermoFisher, A-21245) at 1:1000 dilution in 1% BSA for 1 h. Three individual plate preparations were performed for each construct gradient as independent experiments (n = 3). High-content screening was performed at the VIB Screening Core/C-BIOS, using an Opera Phenix HCS (PerkinElmer) equipped with proper filter channels to track tau aggregation through FRET (Ex:405, Em:550), construct colocalization through HA staining (Ex:647, Em:667) and DAPI staining (Ex:405 Em:430). Image storage and segmentation analysis was performed using the Columbus Plus digital platform (PerkinElmer). Quantification of colocalization was performed using Coloc2 in ImageJ.

| Molecule | rise of induced tau aggregation in transfection-positive cells [%] | susceptibility to tau seeding at low seed concentrations | number of inclusions formed per cell |
| --- | --- | --- | --- |
| IDE: insulin degrading enzyme, transiently expressed construct with homology to PHF6 | 30 | vulnerable to tau seeding even at picomolar concentrations | doubling or higher effect |
| DOCK3: dedicator of cytokinesis, transiently expressed construct | 30 | – | – |
| TRA2B: Transformer-2 homolog beta, transiently expressed construct (protein, UniProt P62995 2-288, looked up) Transformer-2 protein homolog …: SDSGEQNYGERESRSASRSGSAHGSGKSARHTPARSRSKEDSRRSRSKSRSRSESRSRSRRSSRRHYTRSRSRSRSHRRSRSRSYSRDYRRRHSHSHSPMSTRRRHVGNRANPDPNCCLGVFGLSLYTTERDLREVFSKYGPIADVSIVYDQQSRRSRGFAFVYFENVDDAKEAKERANGMELDGRRIRVDFSITKRPHTPTPGIYMGRPTYGSSRRRDYYDRGYDRGYDDRDYYSRSYRGGGGGGGGWRAAQDRDQIYRRRSPSPYYSRGGYRSRSRSRSYSPRRY | 30 | vulnerable to tau seeding even at picomolar concentrations | doubling or higher effect |
| SNTG1: Synaptotagmin-1 (SNTG1) as worded, transiently expressed construct (protein, UniProt Q9NSN8 1-517, looked up) Gamma-1-syntrophin: MDFRTACEETKTGICLLQDGNQEPFKVRLHLAKDILMIQEQDVICVSGEPFYSGERTVTIRRQTVGGFGLSIKGGAEHNIPVVVSKISKEQRAELSGLLFIGDAILQINGINVRKCRHEEVVQVLRNAGEEVTLTVSFLKRAPAFLKLPLNEDCACAPSDQSSGTSSPLCDSGLHLNYHPNNTDTLSCSSWPTSPGLRWEKRWCDLRLIPLLHSRFSQYVPGTDLSRQNAFQVIAVDGVCTGIIQCLSAEDCVDWLQAIATNISNLTKHNIKKINRNFPVNQQIVYMGWCEAREQDPLQDRVYSPTFLALRGSCLYKFLAPPVTTWDWTRAEKTFSVYEIMCKILKDSDLLDRRKQCFTVQSESGEDLYFSVELESDLAQWERAFQTATFLEVERIQCKTYACVLESHLMGLTIDFSTGFICFDAATKAVLWRYKFSQLKGSSDDGKSKIKFLFQNPDTKQIEAKELEFSNLFAVLHCIHSFFAAKVACLDPLFLGNQATASTAASSATTSKAKYTT | – | – | doubling or higher effect |
